Values quoted from earlier work, collected in patent US20240180821A1, “ORALLY DISINTEGRATING FILM COMPOSITION OF KETOROLAC AND A METHOD OF PREPARATION THEREOF” (LN LABORATORIES PVT LTD, priority 2021, published 2024).

O=C(c1ccccc1)c1ccc2n1CCC2C(=O)O (racemic) [Ketorolac tromethamine, (±)-5-Benzoyl-2,3-dihydro-1H-pyrrolizine-1-carboxylic acid, compound with 2-amino-2-(hydroxymethyl)-1,3-propanediol]
pKa: 3.5
